The IC50 is the concentration that gives 50% inhibition. High values mean lower potency, low ones higher potency. In general, inhibition refers to the relative decrease from the control value, in per cent. A low value points to a weak effect.

“Also recorded” adds a separate entry of the source.

One series relates to human lung cancer A549. The series can be described thus: Colony growth of A549 TRCs in 90-Pa fibrin gels. In kind it is cell-based. On the procedure:
(§1) Salmon fibrinogen and thrombin were purchased from Reagent Proteins (CA, USA). 3D fibrin gels were prepared as described previously[5],[6]. In brief, fibrinogen was diluted into 2 mg mL^−1 with T7 buffer (pH 7.4, 50 mM Tris, 150 mM NaCl). Cells were detached from 2D rigid dishes and cell density was adjusted to 10^4 cells per mL. Fibrinogen and cell solution mixture were made by mixing the same volume of fibrinogen solution and cell solution, resulting in 1 mg mL^−1 fibrinogen and 5000 cells per mL in the mixture fibrin gels. A volume of 50 μL cell/fibrinogen mixture was seeded into each well of 96-well plate and mixed well with pre-added 1 μL thrombin (100 U mL^−1). The cell culture plate was then incubated in 37 °C cell culture incubator for 10 min. Finally, 200 μL of DMEM medium containing 10% FBS and antibiotics was added.

Series [1] relates to human melanoma MDA-MB-435s. The series can be described thus: Colony growth of MDA-MB-435s TRCs in 90-Pa fibrin gels. In kind it is cell-based. The protocol:
as §1

The subject of series [2] is human malignant melanoma A375. The experiment in a line: Colony growth of A375 TRCs in 90-Pa fibrin gels. In kind it is cell-based. To be noted: Homo sapiens. On the procedure:
as §1

Series [3] can be described thus: Systemic toxicity in treated mice (body weight, organs). It is filed as in vivo, C57BL/6 mice. From the text:
Four- to six-week-old female and male C57BL/6 mice were used in mice experiment. Mice were randomized into different groups. In metastasis experiment, B16-F1 cell spheroids were selected from 3D 90-Pa fibrin gels and pipetted to single cells. These TRCs were harvested and the cell number was counted under microscopy. The cells were then suspended in PBS with appropriate cell density. Thirty thousand TRCs were intravenously injected into the tail vein of each wild-type C57BL/6 mouse. Five days later, inoculated mice were intravenous implanted with 0.022 mg kg^−1 WYC-209, 0.22 mg kg^−1 WYC-209, or 0.1% DMSO every two days. The mice were euthanized and examined for lung tumor formation at day 30. In treated TRCs injected in vivo experiments, B16-F1 cells were seeded into 3D 90-Pa fibrin gels and treated with 10 µM WYC-209 or 0.1% DMSO on day 3, then isolated treated TRCs colonies on day 5 and pipetted into single cell. 30,000 of TRCs were intravenously injected into the tail vein of each wild-type C57BL/6 mouse. No blinding was performed in the mice experiments.
Lung, liver, spleen, bone, stomach, and brain of C57BL/6 mice were fixed by 4% paraformaldehyde then were embedded in paraffin and cut to ~4 µm thick sections by Thermo FINESSE 325. Organ sections were stained by H&E and slides were evaluated for tumor formation by a veterinary pathologist blinded to sample identity.

The next series concerns Sox2. The series can be described thus: Sox2 expression by qPCR in TRCs. In kind it is cell-based, murine. The protocol:
(§2) Total mRNA was isolated from the cells using the Trizol reagent according to the supplier’s instruction (Invitrogen). Reverse transcription (RT) was performed using the TransScript First-strand cDNA Synthesis SuperMix (TransGen), according to the manufacturer’s protocol. Real-time RT-PCR was performed using GoTaq qPCR Master Mix (Promega). The data were normalized against mouse glyceraldehyde 3-phosphate dehydrogenase. The primer sequences are as follows: mouse GAPDH (F: 5′-[…]-3′, R: 5′-[…]-3′); mouse RARα (F: 5′-[…]-3′, R: 5′-[…]-3′); mouse RARβ (F: 5′-[…]-3′, R: 5′-[…]-3′); mouse RARγ (F: 5′-[…]-3′, R:5′-[…]-3′); mouse Sox2 (F: 5′-[…]-3′, R: 5′-[…]-3′); mouse Mitf (F: 5′-[…]-3′, R: 5′-[…]-3′).
(§3) Supplementary Figure 39. WYC-209 decreases Sox2 expression but has no effects on Mitf expression. Murine melanoma cells B16-F1 were seeded into 3D soft fibrin gels and then were treated with 0.1% DMSO, 0.1, 1 or 10 µM WYC-209, WYC-209A, or WYC-209B on day 4. mRNA of cells were extracted after 24 hours. Sox2 (a) and Mitf (b) expressions […]
(§4) (1 picture or pasted object on this page, not shown here)
(In general: Real-time PCR tracks product formation cycle by cycle.)

The subject of a further series is Mitf. The series can be described thus: Mitf expression by qPCR in TRCs. In kind it is cell-based, murine. To be noted: 0.1–10 µM for 24 h. On the procedure:
as §2, §3, §4

Another series concerns 3T3 fibroblasts. The series can be described thus: Non-cancerous 3T3 fibroblasts on rigid dishes. The following applies: 0.1, 1, or 10 μM, 18 hrs. In kind it is cell-based, murine. On the procedure:
Murine fibroblast cell line 3T3 cells were cultured on rigid plastic and treated with 0.1, 1, or 10 μM WYC-209 at the time of plating and observed for 18 hrs. Cell nucleus were stained with DAPI and apoptotic cells were assayed with PI. None: medium only; DMSO: medium containing 0.1% DMSO. (a) Representative images of cells at hour 18. (b) Quantitation of cell numbers per view field at hour 18. Mean ± s.e.m.; n= 5 randomly chosen view-fields; 3 separate experiments; no significant differences were observed between groups (Student’s t-test). Scale bars, 500 μm.
as §4

Turning to `CCOC(=O)c1cnc(C#Cc2ccc3c(c2)C(C)(C)CC[S+]3[O-])nc1` (stereo not drawn) [WYC-209], the half-maximal inhibitory concentration (IC50) was determined as 100 nM in the series on human lung cancer A549 (0 h, A549, treated on day 0); 520 nM in series [1] (0 h, treated on day 0); 380 nM in series [2] (A-375, 0 h, A375, treated on day 0). Also, the inhibition at 10 µM worked out at 100% in the series with human lung cancer A549 (A549, 10 μM); 100% in series [1] (10 μM); 100% in series [2] (A-375, A375, 10 μM). The “Mouse body weight versus control group” value in series [3] (0.022 or 0.22 mg kg−1) is recorded as “no effects on mouse weight”. The “Toxic effects in mice / on organs” value in series [3] (0.022 or 0.22 mg kg−1 i.v. every two days) is recorded as “No abnormalities in mouse organs; also recorded: no toxic effects on mouse livers; also recorded: no toxic effects on mouse stomach; also recorded: no observable toxic or necrotic effects or weight loss; also recorded: without showing apparent toxicity”. Besides, the “Decrease of Sox2 expression” value with Sox2 (10 μM, 24 h) was ~ 50%. In addition, in the series with Sox2 (0.1 or 1 µM), the “Change in Sox2 expression” value is given as “no change”. Also, the “Change in Mitf expression” value in the series with Mitf is reported as “did not change”. In addition, the “Impact / toxicity on non-cancerous 3T3 fibroblasts” value in the series on 3T3 fibroblasts was “little toxicity; also recorded: little impact”.

The values above are taken from PMC5895803, “Inhibition of cancer stem cell like cells by a synthetic retinoid” (Nature Communications, 2018).
